Read-outs that look alike come from different tables or passages of the source.
Legend:
Wee-1 kinase = Wee-1 kinase (Homo sapiens (Human), UniProt P30291); experiment: Measurement of Wee-1 kinase activity (ADP-Glo luminescence); assay type: biochemical
Outline: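 Activated Wee-1 preincubated 30 min at RT with compound in Tris/MgCl2 buffer with BSA and DTT, then reacted 1 h at RT with poly(Lys,Tyr 4:1) (2.0 μg/mL) and 30 μM ATP as added aliquot. ADP formed measured by ADP-Glo luminescence; IC50 by non-linear regression of % inhibition.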

[1] = system: phosphorylation of Cdc2 at Tyr15; experiment: ELISA for phosphorylation of Cdc2 at Tyr15 in HT-29 / HCT-116 cells; assay type: cell-based; details: Homo sapiens
Description: Method 2: Determining the Effect of Compounds on the Phosphorylation of Cdc2 at Tyr15
The colorectal cancer cell lines HT-29 and HCT-116 were purchased from the ATCC and routinely maintained in McCoy's Medium (Invitrogen) supplemented with 10% Foetal Calf Serum.
The cells were trypsinised from their growing vessel and counted, 100 μL of cell suspension containing 6000 cells was pipetted into black 96 well Co-star plates and incubated overnight to allow adherence to the surface at a temperature of 37° C. and an atmosphere of 5% CO2. Test compounds were formulated in DMSO and diluted in foetal calf serum supplemented medium. Incubating medium was removed by aspiration and diluted drug supplemented medium added to each well.
The plate was returned to the incubator for an additional eight hours at 37° C. and an atmosphere of 5% CO2. Post incubation, the drug supplemented medium was aspirated from each well and the cells were washed once in ice-cold phosphate buffered saline (PBS). 100 μL of cell lysis buffer (Cell Signalling Technologies #9803) containing 20 mM Tris, 150 mM NaCl, 1 mM EDTA, 1 mM EGTA, 1% Triton-X100, 2.5 mM sodium pyrophosphate, 1 mM glycerophosphate, 1 mM Na3VO4 and 1 μg/mL leupeptin was added to each well of the 96 well plate and incubated at 4° C. for 30 min. The samples on the plate were snap frozen at −80° C. until required. Immediately before the continuation of the assay, the sample plate was thawed and centrifuged at 4° C. for 10 min and the supernatant transferred to secondary tubes or 96 well plate.
Cell supernatant was mixed in a ratio of 1:1 with sample dilutent buffer and vortexed for one minute. 100 μL of diluted sample was pipetted into pre-coated plates containing a rabbit polyclonal antibody for phospho-cdc2 (Tyr15) (Cell Signalling Technologies PathScan kit #7176). The plate was sealed and incubated overnight at 4° C.
The plate seal was removed and the well contents aspirated, followed by 3×5 min washes with 200 μL of diluted wash buffer. Between each wash the plate was tapped firmly onto blotting paper to ensure the removal of all kit solution. 100 μL of kit detection antibody was added to each well and the plate re-sealed and incubated at 37° C. for 1 h. Post incubation the plate was washed and processed in a similar manner to that previously described.
100 μL of horseradish peroxidise-linked secondary antibody was added to each test well, the plate sealed and incubated for thirty minutes at 37° C. Post incubation, the plate was washed as previously stated, followed by the addition of 100 μL of 3,3′,5,5′ tetramethylbenzidine (TMB reagent). The plate was sealed and incubated at RT for 30 min.
100 μL of stop solution was added to each well and the underside of the plate wiped with a lint-free tissue, prior to spectrophotometric determination. Absorbance from each well was read at 450 nm within 30 min of the addition of the stop solution.
The percentage of phospho-cdc2 was calculated compared to DMSO control and plotted versus the concentration of inhibitor using GraphPad Prism. Data was fitted using non-linear regression analysis and IC50 values generated.

A427 cells = experiment: Cell viability (CellTiter-Glo), A427; assay type: cell-based; details: Homo sapiens, A-427; cell viability after 72 hours
Description: (§1) All cell lines (HT29, A427, A498, SKLU-1) were obtained from the American Type Culture Collection (ATCC), maintained in the recommended media supplemented with 10% (v/v) FBS, 1% (v/v) Penicillin/streptomycin and kept at 37° C. in a humidified atmosphere with 5% CO2. Cells were seeded in 96 wp format typically at a seeding density of 3500-5000 cells/well and treated after 24 hours with increasing concentration of compound from 0 to 100 μM in ½ log unit increments. Cell viability was assessed after 72 hours (HT29, A427) or after 6 days (SKLU-1, A498) by CellTiter-Glo® as recommended by the manufacturer's instructions (Promega). Analysis and EC50 values were derived using GraphPadPrism.

A498 cells = experiment: Cell viability (CellTiter-Glo), A498; assay type: cell-based; details: Homo sapiens, A498, 144 h; cell viability after 6 days
Description: as §1

HT29 cells = experiment: Cell viability (CellTiter-Glo), HT29; assay type: cell-based; details: Homo sapiens, HT-29; cell viability after 72 hours
Description: as §1

SK-LU-1 cells = experiment: Cell viability (CellTiter-Glo), SK-LU-1; assay type: cell-based; details: Homo sapiens, SK-LU-1, 144 h; cell viability after 6 days
Description: as §1

[2] = 8 h, Table 2, colorectal cancer cells, eight hours incubation, read-out: ELISA p-CDC2 EC50
[3] = Table 7, data obtained as described in the experimental section of the current invention, read-out: Wee-1/nM
[4] = Table 3, read-out: ELISA p-CDC2 EC50

Chain of Wee-1 kinase (P30291 whole entry): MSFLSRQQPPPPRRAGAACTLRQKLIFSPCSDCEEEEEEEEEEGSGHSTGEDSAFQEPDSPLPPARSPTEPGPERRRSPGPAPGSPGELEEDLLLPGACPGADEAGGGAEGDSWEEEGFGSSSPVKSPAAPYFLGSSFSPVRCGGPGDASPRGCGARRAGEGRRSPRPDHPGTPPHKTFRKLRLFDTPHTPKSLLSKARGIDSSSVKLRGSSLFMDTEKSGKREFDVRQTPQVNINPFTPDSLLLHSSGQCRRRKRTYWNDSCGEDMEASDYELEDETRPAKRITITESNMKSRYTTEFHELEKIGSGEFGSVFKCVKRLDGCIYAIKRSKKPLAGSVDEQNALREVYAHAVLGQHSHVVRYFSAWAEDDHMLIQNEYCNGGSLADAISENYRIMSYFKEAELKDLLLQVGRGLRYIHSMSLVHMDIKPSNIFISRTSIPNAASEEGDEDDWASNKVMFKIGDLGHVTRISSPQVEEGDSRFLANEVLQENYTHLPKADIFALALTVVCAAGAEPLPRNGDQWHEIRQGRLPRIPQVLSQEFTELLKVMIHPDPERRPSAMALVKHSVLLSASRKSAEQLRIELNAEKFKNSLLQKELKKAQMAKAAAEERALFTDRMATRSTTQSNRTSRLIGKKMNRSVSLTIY

Row | SMILES | IC50 (Wee-1 kinase; read-out: Wee1 IC50) | EC50 [1, 2] | further results
1 | C=CCn1c(=O)c2cnc(Nc3ccc(N4CCN(C(C)C)CC4)cc3)nc2n1-c1cccc(N=S(C)(C)=O)n1 [Example 7, 1-(6-{[Dimethyl(oxo)-λ^6-sulfanylidene]amino}pyridine-2-yl)-2-(prop-2-en-1-yl)-6-({4-[4-(propan-2-yl)piperazin-1-yl]phenyl}amino)-1H,2H,3H-pyrazolo[3,4-d]pyrimidin-3-one] | 0.7 nM | 9 nM | 
2 | C=CCn1c(=O)c2cnc(Nc3ccc(N(C)C)cc3)nc2n1-c1cccc(N=S(C)(C)=O)n1 [Example 57, 1-(6-{[Dimethyl(oxo)-λ^6-sulfanylidene]amino}pyridin-2-yl)-6-{[4-(dimethylamino)phenyl]amino}-2-(prop-2-en-1-yl)-1H,2H,3H-pyrazolo[3,4-d]pyrimidin-3-one] | 0.2 nM | 6 nM | IC50 (Wee-1 kinase; [3]): 0.2 nM
3 | C=CCn1c(=O)c2cnc(Nc3ccc(N4CCOCC4)c(C)c3)nc2n1-c1cccc(N=S(C)(C)=O)n1 [Example 21, 1-(6-{[Dimethyl(oxo)-λ^6-sulfanylidene]amino}pyridin-2-yl)-6-{[3-methyl-4-(morpholin-4-yl)phenyl]amino}-2-(prop-2-en-1-yl)-1H,2H,3H-pyrazolo[3,4-d]pyrimidin-3-one] | 0.1 nM | 2 nM | 
4 | C=CCn1c(=O)c2cnc(Nc3ccc(N4CCNCC4)c(C)c3)nc2n1-c1cccc(N=S(C)(C)=O)n1 [Example 26, 1-(6-{[Dimethyl(oxo)-λ^6-sulfanylidene]amino}pyridin-2-yl)-6-{[3-methyl-4-(piperazin-1-yl)phenyl]amino}-2-(prop-2-en-1-yl)-1H,2H,3H-pyrazolo[3,4-d]pyrimidin-3-one] | 0.4 nM | 4 nM | 
5 | C=CCn1c(=O)c2cnc(Nc3ccc(N4CCNCC4)c(Cl)c3)nc2n1-c1cccc(N=S(C)(C)=O)n1 [Example 14, 6-{[3-Chloro-4-(piperazin-1-yl)phenyl]amino}-1-(6-{[dimethyl(oxo)-λ^6-sulfanylidene]amino}pyridine-2-yl)-2-(prop-2-en-1-yl)-1H,2H,3H-pyrazolo[3,4-d]pyrimidin-3-one] | 0.8 nM | 5 nM | 
6 | CC(C)n1c(=O)c2cnc(Nc3ccc(N4CCN(C)CC4)cc3)nc2n1-c1cccc(N=S(C)(C)=O)n1 [Example 20, 1-(6-{[Dimethyl(oxo)-λ^6-sulfanylidene]amino}pyridin-2-yl)-6-{[4-(4-methylpiperazin-1-yl)phenyl]amino}-2-(propan-2-yl)-1H,2H,3H-pyrazolo[3,4-d]pyrimidin-3-one] | 1.4 nM | 47 nM | IC50 (Wee-1 kinase; Table 6, Present Invention, read-out: Wee-1/nM): 1.4 nM; EC50 ([1]; Table 6, Present Invention, read-out: ELISA/nM): 47 nM

Continued, in another order:

Row | IC50 (Wee-1 kinase; read-out: Wee1 IC50) | EC50 [1, 2] | SMILES | further results
7 | 0.1 nM | 7 nM | C=CCn1c(=O)c2cnc(Nc3ccc(N4C[C@H]5COC[C@H]5C4)cc3)nc2n1-c1cccc(N=S(C)(C)=O)n1 [Example 67, 6-({4-[(3aR,6aS)-Hexahydro-1H-furo[3,4-c]pyrrol-5-yl]phenyl}amino)-1-(6-{[dimethyl(oxo)-λ^6-sulfanylidene]amino}pyridin-2-yl)-2-(prop-2-en-1-yl)-1H,2H, 3H-pyrazolo[3,4-d]pyrimidin-3-one] | 
8 | 0.3 nM | 5 nM | C=CCn1c(=O)c2cnc(Nc3ccc(N4CCO[C@H](COC)C4)cc3)nc2n1-c1cccc(N=S(C)(C)=O)n1 [Example 54, 1-(6-{[Dimethyl(oxo)-λ^6-sulfanylidene]amino}pyridin-2-yl)-6-({4-[(2S)-2-(methoxymethyl)morpholin-4-yl]phenyl}amino)-2-(prop-2-en-1-yl)-1H,2H,3H-pyrazolo[3,4-d]pyrimidin-3-one] | EC50 (A427 cells): 17 nM; EC50 [1, 4]: 5 nM; EC50 (A498 cells): 16 nM; EC50 (HT29 cells): 32 nM; EC50 (SK-LU-1 cells): 35 nM
9 | 0.6 nM | 28 nM | C=CCn1c(=O)c2cnc(Nc3ccc(N4CCN[C@H](COC)C4)cc3)nc2n1-c1cccc(N=S(C)(C)=O)n1 [Example 76, 1-(6-{[Dimethyl(oxo)-λ^6-sulfanylidene]amino}pyridin-2-yl)-6-({4-[(3S)-3-(methoxymethyl)piperazin-1-yl]phenyl}amino)-2-(prop-2-en-1-yl)-1H,2H, 3H-pyrazolo[3,4-d]pyrimidin-3-one] | 
10 | 0.5 nM | 26 nM | C=CCn1c(=O)c2cnc(Nc3ccc(N4CCOCC4)cc3)nc2n1-c1cccc(N=S(C)(C)=O)n1 [Example 12, 1-(6-{[Dimethyl(oxo)-λ^6-sulfanylidene]amino}pyridine-2-yl)-6-{[4-(morpholin-4-yl)phenyl]amino}-2-(prop-2-en-1-yl)-1H,2H,3H-pyrazolo[3,4-d]pyrimidin-3-one] | IC50 (Wee-1 kinase; [3]): 0.5 nM; EC50 (A427 cells): 27 nM; EC50 [1, 4]: 26 nM; EC50 (A498 cells): 27 nM; EC50 (HT29 cells): 27 nM; EC50 (SK-LU-1 cells): 30 nM
